Where no end group is shown, it is not given here. The star is where a group is joined. Dansyl = CN(C)c1cccc2c(S(=O)(=O)*)cccc12
Tests used:
[1] = test system: Human platelet-rich plasma on fibrillar collagen; assay: Platelet binding to collagen under flow; format: cell-based; conditions: 50 μM for 15 min; 2 mL/hr for 1 hour, shear rate 355 s^−1
Procedure: To mimic physiologic conditions with flowing blood, platelet binding to collagen surfaces under flow conditions was evaluated. Flow kits were obtained from Ibidi (Munchen, Germany). Each channel was coated with fibrillar collagen (Chronolog). Excess collagen was removed from the flow channel by pushing 1×PBS through the channel with a syringe. DS-SILY18 was incubated in the channel at a concentration of 50 μM for 15 min at 37° C., and unbound peptidoglycan was rinsed by pushing 1×PBS through the channel with a syringe. The control channel consisted of collagen not treated with peptidoglycan.
Platelet rich plasma was pushed through the channels at 2 mL/hr for 1 hour, corresponding to a shear stress of 3.55 dynes/cm^2 and a shear rate of 355 s^−1. Unbound platelets were rinsed from the channel by pushing through 1×PBS. Adhered platelets were fixed in the channel with 10% formaldehyde. Platelets were permeabilized and actin filaments were stained with phalloidin-Alexa Fluor 488 (Invitrogen).

HCA SMCs = assay: Elastin measurement by Fastin assay; format: cell-based, Human; conditions: gels cultured for 10 days
Procedure: Collagen gels seeded with HCA SMCs were prepared as described in EXAMPLE 25. Differentiation medium was changed every three days and gels were cultured for 10 days. Collagen gels containing no cells were used as a control. Gels were rinsed in 1×PBS overnight to remove serum protein, and gels were tested for elastin content using the Fastin elastin assay per manufacturers protocol (Biocolor, County […].). Briefly, gels were solubilized in 0.25 M oxalic acid by incubating at 100° C. for 1 hr. Elastin was precipitated and samples were then centrifuged at 11,000×g for 10 min. The solubilized collagen supernatant was removed and the elastin pellet was stained by Fastin Dye Reagent for 90 min at room temperature. Samples were centrifuged at 11,000×g for 10 min and unbound dye in the supernatant was removed. Dye from the elastin pellets was released by the Fastin Dye Dissociation Reagent, and 100 μL samples were transferred to a 96-well plate (Costar). Absorbance was measured at 513 nm, and elastin content was calculated from an α-elastin standard curve.

collagen [2] = target: T1, collagen (Bos taurus, UniProt P02453+P02465); assay: Collagen fibrillogenesis by turbidity at 313 nm; format: biochemical; conditions: 4 mg/mL collagen, 10:1 collagen:treatment unless otherwise indicated
T1 construct: purchased Inamed, Freemont, Calif; (Nutragen)
T1 sequence (P02453 162-1217 limits assumed): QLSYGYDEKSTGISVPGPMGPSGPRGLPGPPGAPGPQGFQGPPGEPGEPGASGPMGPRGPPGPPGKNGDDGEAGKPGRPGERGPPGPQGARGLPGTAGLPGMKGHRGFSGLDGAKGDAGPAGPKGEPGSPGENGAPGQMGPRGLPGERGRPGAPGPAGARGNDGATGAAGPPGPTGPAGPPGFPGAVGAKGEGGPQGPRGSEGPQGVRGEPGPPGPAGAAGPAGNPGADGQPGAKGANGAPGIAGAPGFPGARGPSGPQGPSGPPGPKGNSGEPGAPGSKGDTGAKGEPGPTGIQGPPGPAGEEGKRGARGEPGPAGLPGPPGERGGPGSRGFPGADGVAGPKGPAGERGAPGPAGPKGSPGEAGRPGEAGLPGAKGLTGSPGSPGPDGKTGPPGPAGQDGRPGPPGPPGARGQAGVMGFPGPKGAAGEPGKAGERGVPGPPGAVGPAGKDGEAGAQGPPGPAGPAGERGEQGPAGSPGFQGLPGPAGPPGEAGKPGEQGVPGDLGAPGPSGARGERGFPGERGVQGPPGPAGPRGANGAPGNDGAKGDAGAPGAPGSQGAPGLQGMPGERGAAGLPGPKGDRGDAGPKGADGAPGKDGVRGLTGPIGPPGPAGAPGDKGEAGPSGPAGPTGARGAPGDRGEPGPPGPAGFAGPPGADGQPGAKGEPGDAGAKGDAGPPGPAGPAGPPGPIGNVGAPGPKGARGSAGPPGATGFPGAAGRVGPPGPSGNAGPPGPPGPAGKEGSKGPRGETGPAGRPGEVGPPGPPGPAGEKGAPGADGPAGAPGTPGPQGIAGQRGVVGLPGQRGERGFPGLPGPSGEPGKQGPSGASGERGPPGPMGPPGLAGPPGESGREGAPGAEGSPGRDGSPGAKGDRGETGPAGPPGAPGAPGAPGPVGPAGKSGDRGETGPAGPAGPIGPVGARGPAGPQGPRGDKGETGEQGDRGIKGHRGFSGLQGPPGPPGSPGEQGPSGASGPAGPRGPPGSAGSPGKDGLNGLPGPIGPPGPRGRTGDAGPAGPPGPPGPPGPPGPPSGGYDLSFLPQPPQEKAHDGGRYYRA
T1 sequence (P02465 80-1117 limits assumed): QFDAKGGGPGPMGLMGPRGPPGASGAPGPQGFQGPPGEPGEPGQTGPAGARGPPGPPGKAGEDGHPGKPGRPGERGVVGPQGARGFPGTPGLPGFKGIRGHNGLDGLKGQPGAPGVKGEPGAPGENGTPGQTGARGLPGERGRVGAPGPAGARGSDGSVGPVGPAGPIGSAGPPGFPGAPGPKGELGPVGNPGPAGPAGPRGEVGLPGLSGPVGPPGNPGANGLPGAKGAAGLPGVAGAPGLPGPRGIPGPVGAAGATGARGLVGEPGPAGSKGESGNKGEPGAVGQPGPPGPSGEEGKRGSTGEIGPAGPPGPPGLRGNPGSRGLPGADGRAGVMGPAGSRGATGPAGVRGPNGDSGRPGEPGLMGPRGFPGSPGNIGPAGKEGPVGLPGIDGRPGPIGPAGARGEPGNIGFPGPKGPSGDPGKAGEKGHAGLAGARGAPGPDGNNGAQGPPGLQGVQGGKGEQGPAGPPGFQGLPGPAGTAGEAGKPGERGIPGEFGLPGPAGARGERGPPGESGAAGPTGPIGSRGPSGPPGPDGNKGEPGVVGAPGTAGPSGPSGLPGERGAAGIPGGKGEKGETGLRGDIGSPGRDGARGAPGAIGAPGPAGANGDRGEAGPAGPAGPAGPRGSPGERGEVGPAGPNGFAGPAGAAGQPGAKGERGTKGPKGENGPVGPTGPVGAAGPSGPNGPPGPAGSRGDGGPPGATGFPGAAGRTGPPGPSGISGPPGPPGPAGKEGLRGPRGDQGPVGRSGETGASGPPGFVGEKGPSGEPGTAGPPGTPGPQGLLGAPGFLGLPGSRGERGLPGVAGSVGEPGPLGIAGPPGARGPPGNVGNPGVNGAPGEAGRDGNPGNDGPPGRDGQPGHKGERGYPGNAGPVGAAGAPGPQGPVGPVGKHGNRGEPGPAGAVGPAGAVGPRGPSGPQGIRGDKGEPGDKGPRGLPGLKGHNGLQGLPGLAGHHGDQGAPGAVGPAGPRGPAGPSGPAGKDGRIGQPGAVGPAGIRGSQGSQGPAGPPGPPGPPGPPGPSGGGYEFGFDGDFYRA
Procedure: Collagen fibrillogenesis was monitored by measuring turbidity related absorbance at 313 nm providing information on rate of fibrillogenesis and fibril diameter. Gel solutions were prepared as described in EXAMPLE 15 (4 mg/mL collagen, 10:1 collagen:treatment, unless otherwise indicated) and 50 uL/well were added at 4° C. to a 384-well plate. The plate was kept at 4° C. for 4 hours before initiating fibril formation. A SpectraMax M5 at 37° C. was used to measure absorbance at 313 nm at 30 s intervals for 6 hours.
A fibrillogenesis assay as described for DS-SILY, EXAMPLE 17, performed with the conjugate DS-Dc13.

[3] = test system: Human platelets on Type I fibrillar collagen; assay: Inhibition of platelet activation on fibrillar collagen after 24 hour rinse (PF4, NAP2); format: cell-based; conditions: 50 μM, incubated 15 min, rinsed for 24 hours
Procedure: Type I fibrillar collagen from Chronolog was diluted in isotonic glucose to a concentration of 50 μg/mL. 50 μL of collagen solution was added to each well of a high bind 96-well plate. The plate was incubated overnight at 4° C., and then rinsed 3× with 1×PBS. For microplate assays, peptidoglycan was diluted in 1×PBS at concentrations between 0.0001 μM to 100 μM and 50 μL solution was added to the collagen coated wells. DS, peptide, or 1×PBS were also added to collagen coated wells as controls. Treatments were incubated at 37° C. with shaking at 200 rpm for 15 min. Wells were then rinsed of unbound treatment by removing the treatment solution, adding PBS, and shaking the wells for 24 hours. During the 24 hours, PBS solution was changed 3 times.
Human whole blood was collected from healthy volunteers by venipuncture. The first 5 mL of blood was discarded and approximately 20 mL was then collected into citrated glass vacutainers (BD Bioscience). Blood was centrifuged in the glass tube for 20 min at 200 g at 25° C. The top layer of the centrifuged blood, the platelet rich plasma (PRP), was used for platelet experiments.
PRP (50 μL/well) was added to the microplate for 1 hour at room temperature without shaking. After 1 hour of incubation, 45 μL of PRP was removed from each well and added to a microcentrifuge tube containing […] ETP (107 mM EDTA, 12 mM theophylline, and 2.8 mM prostaglandin E1) to inhibit further platelet activation. These tubes were spun at 4° C. for 30 min at 2000 g to pellet the platelets. The supernatant (platelet serum) was collected for ELISA studies to test for the presence of platelet activation markers PF-4 and NAP2. Sandwich ELISAs were utilized in order to detect each protein. The components for both sandwich ELISAs were purchased from R&D Systems and the provided protocols were followed. Platelet serum was diluted 10,000 times in 1% BSA in 1×PBS for values to fall within a linear range.
Platelet activation was measured through release of platelet factor 4 (PF4) and β-thromboglobulin (NAP2). […] Since the high SILY/DS ratio is expected to provide higher binding affinity to the collagen surface due to multiple interactions, peptidoglycans with the higher SILY/DS ratios were prepared.
The number of peptides per DS molecule was further increased to 18 to create the peptidoglycan DS-SILY18, and the concentration of molecule needed to inhibit platelet activation was tested. […] Within solubility limits, the number of peptides can be increased to achieve maximal platelet inhibition as well as to reduce diffusion over time, where a higher level of peptidoglycans on the denuded vessel wall is sustained.

collagen [4] = target: T1, collagen; assay: Cryo-SEM measurement of fibril density; conditions: 10:1 molar ratio, cryo-SEM 10,000×
Procedure: Collagen gels were formed in the presence of each additive at a 10:1 molar ratio, as described in EXAMPLE 15, directly on the SEM stage, processed, and imaged as described. Images at 10,000× were analyzed for fibril density calculations. Images were converted to 8-bit black and white, and threshold values for each image were determined using ImageJ software (NIH). The threshold was defined as the value where all visible fibrils are white, and all void space is black. The ratio of white to black area was calculated using MatLab software. All measurements were taken in triplicate and thresholds were determined by an observer blinded to the treatment.

Monomeric collagen = target: T2, Monomeric collagen (Bos taurus, UniProt P02453+P02465); assay: Fluorescence binding of dansyl-labeled DS-peptide conjugates to immobilized collagen; conditions: 100 μM to 10 nM; 30 min at 37° C.
T2 construct: purchased Advanced Biomatrix 5010
T2 sequence (P02453 162-1217 limits assumed): as the sequence (P02453 162-1217 limits assumed) above
T2 sequence (P02465 80-1117 limits assumed): as the sequence (P02465 80-1117 limits assumed) above
Procedure: In order to determine whether the peptide conjugate maintained its ability to bind to collagen after its conjugation to DS, a fluorescent binding assay was performed. A fluorescently labeled version of SILY, Z-SILY, was synthesized by adding dansylglycine to the amine terminus. This peptide was conjugated to DS and purified using the same methods described for SILY.
Binding assays were done in a 96-well high binding plate, black with a clear bottom (Costar). Collagen was compared to untreated wells and BSA coated wells. Monomeric collagen (Advanced Biomatrix Cat. No. 5010) and BSA were immobilized at 37° C. for 1 hr by incubating 90 μL/well at concentrations of 2 mg/mL in 10 mM HCl and 1×PBS respectively. Each well was washed 3× with 1×PBS after incubating.
Wells were preincubated with DS at 37° C. for 30 min to eliminate nonspecific binding of DS to collagen. Wells were rinsed 3× with 1×PBS before incubating with DS-Z-SILY. […] Fluorescence readings were taken on an M5 Spectramax Spectrophotometer (Molecular Devices) at excitation/emission wavelengths of 335 nm/490 nm, respectively.
Fluorescence binding of DS-Z-SILY on immobilized collagen, BSA, and untreated wells are compared in FIG. 7. […]
The fluorescence binding assays described for DS-ZSILY was performed with peptide sequence ZSYIRIADTNITGC (ZDc13) (SEQ ID NO: 30).

collagen [5] = target: T1, collagen; assay: Viscoelastic characterization of collagen gels containing Dc13 or DS-Dc13; conditions: varying ratios of collagen to additive
Procedure: Collagen gels were prepared, as in EXAMPLE 15. Viscoelastic characterization was performed as described in EXAMPLE 16 on gels formed with varying ratios of collagen to additive (treatment).

[6] = test system: Human coronary artery smooth muscle cells (HCA SMC); assay: Gel compaction by smooth muscle cells in collagen gels; format: cell-based; conditions: Day 7
Procedure: Human coronary artery smooth muscle cells (HCA SMC) (Cascade Biologics) were cultured in growth medium (Medium 231 supplemented with smooth muscle growth factor). Cells from passage 3 were used for all experiments. Differentiation medium (Medium 231 supplemented with 1% FBS and 1×pen/strep) was used for all experiments unless otherwise noted.
Collagen gels were prepared with each additive as described with the exception that the 1×PBS sample addition was omitted to accommodate the addition of cells in media. After incubating on ice for 30 min, HCA SMCs in differentiation medium were added to the gel solutions to a final concentration of 1×10^6 cells/mL. Gels were formed in quadruplicate in 48-well non-tissue culture treated plates (Costar) for 6 hrs before adding 500 μL/well differentiation medium. Gels were freed from the well edges after 24 hrs. Medium was changed every 2-3 days and images for compaction were taken at the same time points using a Gel Doc System (Bio-Rad). The cross-sectional area of circular gels correlating to degree of compaction was determined using ImageJ software (NIH). Gels containing no cells were used as a negative control and cells in collagen gels absent additive were used as a positive control. By day 10 all gels had compacted to approximately 10% of the original gel area, and differences between additives were small.

| Substance | platelets bound to collagen under flow [1] | elastin production (HCA SMCs) | fibrillogenesis (absorbance at 313 nm) (collagen [2]) | inhibition of platelet activation (release of PF4 and NAP2) [3] | fibril density (ratio of fibril containing area to void space) (collagen [4]) | fluorescence binding to collagen versus BSA and untreated wells (Monomeric collagen) | stiffness (storage modulus G′) of collagen gel (collagen [5]) | gel compaction, day 7 [6] |
| --- | --- | --- | --- | --- | --- | --- | --- | --- |
| DS-SILY: dermatan sulfate-RRANAALKAGELYKSILYGC conjugate; SILY/DS ratio 1.06 in Example 2, varied ratios in Example 36 (RRANAALKAGELYKSILYGC-NH2; not fully specified (residue 20); also: dermatan sulfate conjugate, SILY/DS ratio 1.06 or varied) | significantly fewer bound platelets on the peptidoglycan treated surface | significantly increased elastin production over all samples | decreases the rate of fibrillogenesis | able to inhibit collagen mediated platelet activation | significantly greater fibril density |  |  |  |
| DS-Z-SILY: dermatan sulfate conjugated to Z-SILY (Dansyl-GRRANAALKAGELYKSILYGC-NH2; also: dermatan sulfate conjugate) |  |  |  |  |  | binds specifically to the collagen-treated wells over BSA and untreated wells |  |  |
| dermatan sulfate [DS] |  | significantly decreased elastin production over untreated collagen |  | little to no effect on inhibiting platelet activation |  |  | increase the stiffness of the resulting collagen gel over untreated collagen | significant compared to collagen |
